Test results published in patent US9447028B2, “Therapeutic aryl-amido-aryl compounds and their use” (King's College London, priority 2009, dated 2016).

Key:
[1] = test system: amyloid precursor protein (APP); test: APP expression in cultured cortical neurons; type: cell-based, mouse; set-up: dose or concentration left out as unconfirmed; conditions: Agonist; analysed 3 days later (Table 4)
Procedure: (§1) Neuronal cultures were prepared from embryonic E19 mouse embryos. Fetal brain cortices were dissected and freed from meninges. […] Cortical cells (1×10^5) were plated onto poly-L-lysine (10 μg/mL) coated glass coverslips in 24-well tissue culture plates. They were cultured in Neurobasal medium containing B27 supplement, 2 mM glutamine, 20 μg/mL penicillin stepromycin, and 0.25% glucose. They were maintained for 7 days before been treated. For each treatment, 3 coverslips were used and the experiment was repeated 3 times.
(§2) After 3 days of culture, media was removed and Hoechst 33342 (10 μM) and propidium iodide (10 μM) in PBS was added to the wells for 15 minutes. Only neurons positive for Hoechst 33342 but negative for propidium iodide were counted as surviving neurons. […] The antibodies used were α chAT (1:200, Chemicon™), α APP (1:100, Chemicon™) and α ADAM10 (1:200, Chemicon™). Secondary antibody used was anti-rabbit Cy3 or Cy5 conjugated (Jackson™, used at 1:1000). The nuclear marker DAPI (1 μg/mL) was used to stain all cells. […]

[2] = test system: disintegrin-metalloproteinases 10 (ADAM10); test: ADAM10 expression in cultured cortical neurons; type: cell-based, mouse; set-up: dose or concentration left out as unconfirmed; conditions: Agonist; analysed 3 days later (Table 5, introduced as ADAM10 data)
Procedure: as §1, §2

[3] = test system: choline acetyltransferase (chAT); test: chAT expression in cultured cortical neurons; type: cell-based, mouse; set-up: dose or concentration left out as unconfirmed; conditions: Agonist; analysed 3 days later
Procedure: as §1, §2

[4] = molecular target: T1, RARα (Homo sapiens, UniProt P10276); test: Transactivation assay for RAR alpha (gal4-RAR fusion, luciferase reporter, COS-7 cells); type: cell-based
T1 construct: gal4 (fusion partner); expressed in transfected cells; host or cells: COS-7
T1 sequence (P10276 183-417 limits assumed): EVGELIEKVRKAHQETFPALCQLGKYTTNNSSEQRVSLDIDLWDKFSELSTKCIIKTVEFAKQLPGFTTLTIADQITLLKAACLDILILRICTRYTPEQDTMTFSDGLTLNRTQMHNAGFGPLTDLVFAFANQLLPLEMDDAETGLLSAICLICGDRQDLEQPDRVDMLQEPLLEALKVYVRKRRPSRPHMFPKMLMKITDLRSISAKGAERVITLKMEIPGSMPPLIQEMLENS
In short: (§3)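 COS-7 cells co-transfected with gal4–RAR ligand-binding-domain fusion and pFR-luc reporter, then treated with compound in phenol-red-free DMEM (1% DMSO) for about one day. Luciferase read after lysis with BrightGlo; EC50 values from replicate experiments given as a ratio of means.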

[5] = molecular target: T2, RARβ (Homo sapiens, UniProt P10826); test: Transactivation assay for RAR beta (gal4-RAR fusion, luciferase reporter, COS-7 cells); type: cell-based; conditions: ratio of test compound EC50 to that of atRA; inactive = no agonist action at the highest concentration tested
T2 construct: gal4 (fusion partner); expressed in transfected cells; host or cells: COS-7
T2 sequence (P10826 183-417 limits assumed): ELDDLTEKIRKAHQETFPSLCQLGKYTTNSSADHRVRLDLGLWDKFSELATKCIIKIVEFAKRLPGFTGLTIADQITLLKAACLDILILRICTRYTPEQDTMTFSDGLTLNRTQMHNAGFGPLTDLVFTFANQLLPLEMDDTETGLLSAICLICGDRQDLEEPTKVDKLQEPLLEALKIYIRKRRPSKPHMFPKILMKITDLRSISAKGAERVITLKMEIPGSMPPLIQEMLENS
In short: as §3

[6] = molecular target: T3, RARγ (Homo sapiens, UniProt P13631); test: Transactivation assay for RAR gamma (gal4-RAR fusion, luciferase reporter, COS-7 cells); type: cell-based; conditions: ratio of test compound EC50 to that of atRA; inactive = no agonist action at the highest concentration tested
T3 construct: gal4 (fusion partner); expressed in transfected cells; host or cells: COS-7
T3 sequence (P13631 185-419 limits assumed): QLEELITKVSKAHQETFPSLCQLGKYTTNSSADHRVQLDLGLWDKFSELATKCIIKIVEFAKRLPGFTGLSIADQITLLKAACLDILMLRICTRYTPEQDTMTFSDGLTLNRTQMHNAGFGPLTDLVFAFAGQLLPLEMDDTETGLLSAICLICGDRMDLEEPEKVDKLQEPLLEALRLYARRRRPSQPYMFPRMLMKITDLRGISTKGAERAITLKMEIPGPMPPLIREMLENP
In short: as §3

[7] = test system: cortical neurons; test: Survival of cortical neurons in the presence of 10 μM Aβ42; type: cell-based, mouse; conditions: for % Surviving Neurons: 10 μM Aβ42, 3 days; for Neuronal survival in the presence of Aβ42 (in words): 10 μM Aβ42, 0.01-1 μM agonist, compared to control cultures treated only with Aβ42
Procedure: as §1
After 3 days of culture, media was removed and Hoechst 33342 (10 μM) and propidium iodide (10 μM) in PBS was added to the wells for 15 minutes. Only neurons positive for Hoechst 33342 but negative for propidium iodide were counted as surviving neurons. In addition, cortical cultures were treated with agonist alone (0.1 μM) and assayed for chAT, APP, and ADAM10. The antibodies used were α chAT (1:200, Chemicon™), α APP (1:100, Chemicon™) and α ADAM10 (1:200, Chemicon™). Secondary antibody used was anti-rabbit Cy3 or Cy5 conjugated (Jackson™, used at 1:1000). The nuclear marker DAPI (1 μg/mL) was used to stain all cells.
Cortical cultures were treated after 7 days with 10 μM Aβ42 and supplemented with 0.01-1 μM of agonist. After 3 days, the number of surviving cells was determined. […] As atRA is a weak pan-agonist of all the RARs, it was decided to identify the specific receptor involved in this process using RAR specific agonists.

[8] = test system: Aβ40; test: Aβ40 level in cortex of Tg2576 mice after oral agonist (sandwich ELISA); type: in vivo; conditions: chow with 1 mg/kg agonist for 3 months, six months of age; control = 100
Procedure: (§4) Twenty seven 3 month old Tg2576 mice (Taconic™) were split into 3 groups of 9. One group was fed normal chow, the other groups were fed with 1 mg/Kg RARα agonist, either AM580 or BMS194753. Animals were analysed at 6 and 9 months of age.
(§5) Animals were perfused with PBS. The brain was dissected and one hemisegment was fixed in 4% PFA overnight, 20% sucrose for 3 days, embedded in OCT compound and stored frozen. The cortex was removed form the other hemisegment and the protein extracted.
(§6) To measure Aβ40 and Aβ42 levels, a sandwich ELISA assay kit (Biosource™) was used according to the manufactures instructions. A 1:5000 of the guanidine-soluble extracts were made with TBS containing 5% BSA and 1×protease inhibitor (Calbiochem™) and centrifuged at 16000×g for 20 minutes at 4° C. Samples were diluted 1:10000 in sample diluent provided by the manufacturer.
(§7) These are Tg2576 mice, which over-express the Swedish mutation of APP. These mice overproduce Aβ40 and Aβ42. Three month old mice were fed for 3 months with normal chow or chow supplemented with 1 mg/kg of agonist. At six months of age, there is a dramatic decrease in both Aβ40 and Aβ42 levels in the mice fed with the RARα agonist, as compared to the normal fed mice.

[9] = test system: Aβ42; test: Aβ42 level in cortex of Tg2576 mice after oral agonist (sandwich ELISA); type: in vivo; conditions: chow with 1 mg/kg agonist for 3 months, six months of age; control = 100
Procedure: as §4, §5, §6, §7

| SMILES | Number of APP Neurons [1] | Number of APP Neurons [2] | Number of chAT Neurons [3] | RARα/RARβ ratio (*) ([4]; fold-selectivity for RARα over RARβ) | RARα activity ratio ([4]; ratio of test compound EC50 to that of atRA on the same plate) | RARβ activity ratio [5] | RARγ activity ratio [6] | % Surviving Neurons ([7]; 0.01 μM agonist) | % Surviving Neurons ([7]; 0.1 μM agonist) | % Surviving Neurons ([7]; 1.0 μM agonist) | Neuronal survival in the presence of Aβ42 (in words) [7] | % of Aβ40 [8] | % of Aβ42 [9] |
| --- | --- | --- | --- | --- | --- | --- | --- | --- | --- | --- | --- | --- | --- |
| CC1=C(/C=C/C(C)=C/C=C/C(C)=C/C(=O)O)C(C)(C)CCC1 [atRA, all trans retinoic acid] | 15 ± 2 | 11 ± 1.5 | 16 ± 2 | 1 | 1 | 1 | 1 | 53 ± 4% | 69 ± 4% | 82 ± 4% | increase in cell survival with increasing dose | – | – |
| CC1(C)C(=O)C(C)(C)c2cc(C(=O)Nc3ccc(C(=O)O)cc3)ccc21 [BMS 194753] | 10 ± 2 | 20 ± 2 | 37 ± 3 | – | – | – | – | 57 ± 7% | 69 ± 3% | 88 ± 4% | notably better | 3 ± 0.5% | 7 ± 1% |
| O=C(O)c1ccc2cc(-c3ccc(O)c(C45CC6CC(CC(C6)C4)C5)c3)ccc2c1 [CD 437] | 22 ± 3 | 2 ± 0.75 | 2 ± 1 | – | – | – | – | 53 ± 3% | 30 ± 11% | 26 ± 10% | notably worse | – | – |
| CC1(C)CCC(C)(C)c2cc(C(=O)Nc3ccc(C(=O)O)cc3)ccc21 [AM 580] | 11 ± 2 | 19 ± 3 | – | – | – | – | – | 52 ± 7% | 70 ± 6% | 99 ± 9% | notably better | 4 ± 1% | 8 ± 1% |
| COc1ccc(-c2ccc3cc(C(=O)O)ccc3c2)cc1C1(C)CCCCC1 [CD 2019] | 23 ± 2 | 1 ± 0.5 | 8 ± 1 | – | – | – | – | 52 ± 3% | 58 ± 5% | 60 ± 5% | notably worse | – | – |
